According to US20200317639A1, “POLYMORPHS OF N-[(2,6-DIFLUORO-3-METHOXYPHENYL)METHYL]-3-(METHOXYMETHYL)-1-({4-[(2-OXOPYRIDIN-1YL)METHYL]PHENYL}METHYL)PYRAZOLE-4-CARBOXAMIDE” (KALVISTA PHARMACEUTICALS LIMITED, priority 2016, published 2020):

Test: Gravimetric Vapour Sorption (GVS)
Format: physicochemical
Experimental: Gravimetric Vapour Sorption (GVS) data were collected using the following method: Approximately 10 mg of sample was placed into a wire-mesh vapour sorption balance pan and loaded into an ‘IgaSorp’ vapour sorption balance (Hiden Analytical Instruments). The sample was then dried by maintaining a 0% humidity environment until no further weight change was recorded. Subsequently, the sample was then subjected to a ramping profile from 0-90% RH at 10% RH increments, maintaining the sample at each step until equilibration had been attained (99% step completion). Upon reaching equilibration, the % RH within the apparatus was ramped to the next step and the equilibration procedure repeated. After completion of the sorption cycle, the sample was then dried using the same procedure. The weight change during the sorption/desorption cycles were then monitored, allowing for the hygroscopic nature of the sample to be determined.

**Q.** With `COCc1nn(Cc2ccc(Cn3ccccc3=O)cc2)cc1C(=O)NCc1c(F)ccc(OC)c1F` [Form A, N-[(2,6-Difluoro-3-methoxyphenyl)methyl]-3-(methoxymethyl)-1-({4-[(2-oxopyridin-1-yl)methyl]phenyl}methyl)pyrazole-4-carboxamide] as the compound, how does the “%-Wt (dry basis), Desorption” value (0.01 %-RH) read?
**A.** The value was 1.174 %-Wt.

**Q.** What about the “%-Wt (dry basis), Adsorption” value (0.012 %-RH) of the same compound?
**A.** The value was 0.003304 %-Wt.

**Q.** And the “%-Wt (dry basis), Adsorption” value (0.013 %-RH)?
**A.** The value was 0.004135 %-Wt.

**Q.** And the “%-Wt (dry basis), Desorption” value (5.002 %-RH)?
**A.** Its value is 2.121 %-Wt.

**Q.** And the “%-Wt (dry basis), Adsorption” value (10.022 %-RH)?
**A.** Its value is 0.3314 %-Wt.

**Q.** And the “%-Wt (dry basis), Desorption” value (15.039 %-RH)?
**A.** Its value is 3.537 %-Wt.

**Q.** And the “%-Wt (dry basis), Adsorption” value (20.014 %-RH)?
**A.** Its value is 0.7833 %-Wt.

**Q.** What about the “%-Wt (dry basis), Desorption” value (25.192 %-RH) of the same compound?
**A.** The value was 5.219 %-Wt.

**Q.** And the “%-Wt (dry basis), Adsorption” value (30.014 %-RH)?
**A.** Its value is 1.246 %-Wt.

**Q.** And the “%-Wt (dry basis), Desorption” value (34.985 %-RH)?
**A.** The value was 6.774 %-Wt.

**Q.** And the “%-Wt (dry basis), Adsorption” value (40.009 %-RH)?
**A.** Its value is 1.892 %-Wt.

**Q.** What about the “%-Wt (dry basis), Desorption” value (44.978 %-RH) of the same compound?
**A.** Its value is 7.808 %-Wt.

**Q.** What about the “%-Wt (dry basis), Adsorption” value (49.999 %-RH) of the same compound?
**A.** Its value is 2.49 %-Wt.

**Q.** What about the “%-Wt (dry basis), Desorption” value (55.023 %-RH) of the same compound?
**A.** The value was 8.516 %-Wt.

**Q.** What about the “%-Wt (dry basis), Adsorption” value (59.993 %-RH) of the same compound?
**A.** The value was 3.239 %-Wt.

**Q.** And the “%-Wt (dry basis), Desorption” value (65.019 %-RH)?
**A.** Its value is 9.185 %-Wt.

**Q.** And the “%-Wt (dry basis), Adsorption” value (69.992 %-RH)?
**A.** The value was 4.507 %-Wt.

**Q.** What about the “%-Wt (dry basis), Desorption” value (75.011 %-RH) of the same compound?
**A.** Its value is 9.927 %-Wt.

**Q.** And the “%-Wt (dry basis), Adsorption” value (79.981 %-RH)?
**A.** Its value is 7.117 %-Wt.

**Q.** What about the “%-Wt (dry basis), Desorption” value (85.009 %-RH) of the same compound?
**A.** The value was 10.43 %-Wt.

**Q.** What about the “%-Wt (dry basis), Adsorption” value (89.98 %-RH) of the same compound?
**A.** The value was 10.71 %-Wt.

**Q.** And the “%-Wt (dry basis), Desorption” value (89.98 %-RH)?
**A.** The value was 10.71 %-Wt.
